From patent US20090068290A1, “BIFEPRUNOX DOSES FOR TREATING SCHIZOPHRENIA” (priority 2006, published 2009)
Like-named read-outs stand apart in the source and are kept apart here.

Key:
[1] = test system: patients with chronic schizophrenia; assay: PANSS negative subscale score, Clinical Study Four; format: in vivo, human; conditions: FAS, ANCOVA; for PANSS negative subscale, Adjusted Mean Change from Baseline (LS mean): LOCF; for mean PANSS negative subscale scores versus PBO, per-visit LOCF analysis: both BX doses
Procedure: (§1) METHODOLOGY: This study was a multinational, multicenter, randomized, double-blind, parallel-group, placebo-controlled, fixed-dose study. The study consisted of a 3- to 6-day antipsychotic-free run-in period, after which patients were randomised to 6 months of double-blind treatment with fixed doses of bifeprunox (20 mg/day (BX20) or 30 mg/day (BX30)) or placebo (PBO). Patients allocated to the BX groups were up-titrated from 0.25 mg/day over 7 days (BX20) or 8 days (BX30), and then continued on these doses for the remainder of the study. […] At predetermined time points, blood samples were obtained for drug concentration analysis of BX and its major metabolites (3′- and 4′-sulfate conjugates of BX), and pharmaco-economic assessments were performed.

[2] = test system: patients with chronic schizophrenia; assay: BPRS total and psychosis cluster scores, Clinical Study Four; format: in vivo, human; conditions: FAS, LOCF, ANCOVA
Procedure: as §1

[3] = test system: patients with chronic schizophrenia; assay: Adverse events incl. EPS TEAEs, Clinical Study Four; format: in vivo, human
Procedure: OTHER SECONDARY OBJECTIVE: To evaluate the long-term safety and tolerability of bifeprunox versus placebo.
as §1

[4] = Pharmacokinetics of bifeprunox, pooled analysis and population PK; format: in vivo, human; conditions: for half-life: read-out: mean plasma steady-state (elimination) half-life (converted)
Description: The objective of this study is to assess the pharmacokinetics (PK) of bifeprunox. The PK of bifeprunox in healthy subjects were investigated based on a pooled analysis of PK parameters from 21 clinical pharmacology studies. The pooled analysis included PK profiles after single and multiple doses to 132 and 399 subjects, respectively, and explored the potential effects of age, gender, body weight, and race. In addition, PK in patients with schizophrenia were investigated using a population PK approach based on samples from 376 patients in phase II studies and 434 patients in phase III studies.

[5] = Pharmacokinetic interaction of lithium and bifeprunox in healthy male subjects; format: in vivo, human; conditions: bifeprunox up to 40 mg per day and lithium 450 mg twice daily
Procedure: Because bifeprunox may be used in combination with the mood-stabilizing drug lithium for the treatment of patients with psychoses and mood disorders, the effect of multiple doses of bifeprunox on the pharmacokinetic (PK) profile of lithium was evaluated. Lithium has a narrow therapeutic index that can complicate therapy, and serum levels greater than 1.5 mmol/L carry a greater risk of lithium toxicity than do lower levels.
METHODS: This was a single center, double-blind, randomized, placebo-controlled, parallel-design study in 48 healthy male subjects. All subjects were to receive open-label lithium (450 mg) twice daily on days 1 through 8 and, provided serum levels were stable on days 5 through 7, again on days 9 through 20. Subjects whose serum levels were stable on days 5 through 7 were included in those randomized to receive, in addition to lithium 450 mg twice daily, either placebo or a rising dose of bifeprunox (0.025-40 mg) once daily on days 9 through 17, and placebo or bifeprunox 40 mg on days 18 through 21. Only a single morning dose of lithium 450 mg was administered on day 21. Lithium, steady-state Cmax, AUC over the dosing interval (0-t), and renal clearance (CL-R) values were compared between the bifeprunox and placebo groups using ANCOVA with baseline values of lithium measured on day 8 as covariate.

[6] = Pooled metabolic analysis, 6-month study: body weight; conditions: for Weight, Mean (SD) change from baseline: endpoint
Description: OBJECTIVE: To examine the metabolic effects of bifeprunox in patients with acute and stable schizophrenia.
METHODS: Metabolic data was compiled from one 6-month and four 6-week studies (i.e., a treatment period) of bifeprunox in patients with stable and acute schizophrenia, respectively. In the 6-month study, patients received bifeprunox (n=331) or placebo (PBO) (n=166). […] Metabolic evaluations included body weight, body mass index (BMI), plasma glucose and lipid profiles. Fasting glucose and lipid values were assessed in one 6-week study and in the 6-month study. Triglyceride:HDL ratio (TG:HDL) was calculated as a marker of insulin resistance. No statistical analyses were performed; only descriptive statistics are presented.

[7] = Incidence of hyperglycemia and diabetes-related adverse events in placebo-controlled trials; format: in vivo, human
Description: Hyperglycemia, in some cases extreme and associated with ketoacidosis or hyperosmolar coma or death, has been reported in patients treated with atypical antipsychotics. The incidence of hyperglycemia and diabetes-related adverse events (such as hyperglycemia, elevated blood glucose, impaired glucose tolerance, diabetes mellitus, inadequately controlled diabetes) in patients treated with bifeprunox was 0.5% (5/1050) and in placebo-treated patients was 0.6% (3/469) in six-week placebo-controlled trials. […] Assessment of the relationship between atypical antipsychotic use and glucose abnormalities is complicated by the possibility of an increased background risk of diabetes mellitus in patients with schizophrenia and the increasing incidence of diabetes mellitus in the general population. Given these confounders, the relationship between atypical antipsychotic use and hyperglycemia-related adverse events is not completely understood. […] Because bifeprunox was not marketed at the time these studies were performed, it is not known if bifeprunox is associated with this increased risk. Precise risk estimates for hyperglycemia-related adverse events in patients treated with atypical antipsychotics are not available.

[8] = baseline BMI 18.5-25 kg/m^2, BX total doses
[9] = baseline BMI <18.5 kg/m^2, BX total doses
[10] = baseline BMI >25-30 kg/m^2, BX total doses
[11] = baseline BMI >30 kg/m^2, BX total doses
[12] = baseline BMI All, BX total doses

SMILES: O=c1[nH]c2cccc(N3CCN(Cc4cccc(-c5ccccc5)c4)CC3)c2o1 [Bifeprunox, 7-[4-([1,1′-biphenyl]-3-ylmethyl)-1-piperazinyl]-2(3H)-benzoxazolone]
- PANSS negative subscale, Adjusted Mean Change from Baseline (LS mean) ([1]; Month 6, listed as BX20): −1.6
- PANSS negative subscale, Adjusted Mean Change from Baseline (LS mean) ([1]; Month 6, listed as BX30): −1.7
- PANSS negative subscale, Adjusted Mean Change from Baseline (LS mean) ([1]; Week 6, listed as BX20): −2.0
- PANSS negative subscale, Adjusted Mean Change from Baseline (LS mean) ([1]; Week 6, listed as BX30): −1.6
- mean PANSS negative subscale scores versus PBO, per-visit LOCF analysis ([1]; listed as BX): statistically significantly superior to that with PBO at all time points, except at Weeks 2 and 4 for the BX30 group
- mean PANSS negative subscale scores versus PBO, per-visit LOCF analysis ([1]; listed as BX20): statistically significantly superior to that with PBO at all time points, except at Weeks 2 and 4 for BX30
- BPRS psychosis cluster, Adjusted Mean Change from Baseline (LS mean) ([2]; Month 6, listed as BX20): −0.1
- BPRS total, Adjusted Mean Change from Baseline (LS mean) ([2]; Month 6, listed as BX20): −0.1
- BPRS psychosis cluster, Adjusted Mean Change from Baseline (LS mean) ([2]; Month 6, listed as BX30): −0.2
- BPRS total, Adjusted Mean Change from Baseline (LS mean) ([2]; Month 6, listed as BX30): 0.5
- BPRS psychosis cluster, Adjusted Mean Change from Baseline (LS mean) ([2]; Week 6, listed as BX20): −0.8
- BPRS total, Adjusted Mean Change from Baseline (LS mean) ([2]; Week 6, listed as BX20): −2.1
- BPRS psychosis cluster, Adjusted Mean Change from Baseline (LS mean) ([2]; Week 6, listed as BX30): −0.7
- BPRS total, Adjusted Mean Change from Baseline (LS mean) ([2]; Week 6, listed as BX30): −1.3
- patients with TEAEs related to EPS that led to withdrawal ([3]; BX20): 4 patients
- weight decreased reported as a TEAE ([3]; BX20): 8%
- AKATHISIA, % ([3]; BX20, APTS): (6.9) %
- Choreoathetosis, % ([3]; BX20, APTS): (1.9) %
- DYSKINESIA, % ([3]; BX20, APTS): (1.3) %
- Dystonia, % ([3]; BX20, APTS): (0.6) %
- EPS TEAEs: MUSCULOSKELETAL AND CONNECTIVE TISSUE DISORDERS, % ([3]; BX20, APTS): (0.6) %
- EPS TEAEs: NERVOUS SYSTEM DISORDERS, % ([3]; BX20, APTS): (10.1) %
- EXTRAPYRAMIDAL DISORDER, % ([3]; BX20, APTS): (0.6) %
- Muscle rigidity, % ([3]; BX20, APTS): (0.6) %
- Patients with EPS TEAEs, % ([3]; BX20, APTS): (10.1) %
- TREMOR, % ([3]; BX20, APTS): (0.6) %
- proportion of patients with TEAEs related to EPS ([3]; BX20, APTS): 10%
- patients with TEAEs related to EPS that led to withdrawal ([3]; BX30): 9 patients
- weight decreased reported as a TEAE ([3]; BX30): 8%
- weight increased reported as a TEAE ([3]; BX30): 1.2%
- AKATHISIA, % ([3]; BX30, APTS): (4.7) %
- Athetosis, % ([3]; BX30, APTS): (0.6) %
- Choreoathetosis, % ([3]; BX30, APTS): (0.6) %
- DYSKINESIA, % ([3]; BX30, APTS): (6.4) %
- EPS TEAEs: MUSCULOSKELETAL AND CONNECTIVE TISSUE DISORDERS, % ([3]; BX30, APTS): (0.6) %
- EPS TEAEs: NERVOUS SYSTEM DISORDERS, % ([3]; BX30, APTS): (14.5) %
- EXTRAPYRAMIDAL DISORDER, % ([3]; BX30, APTS): (2.9) %
- Muscle rigidity, % ([3]; BX30, APTS): (0.6) %
- Patients with EPS TEAEs, % ([3]; BX30, APTS): (14.5) %
- TREMOR, % ([3]; BX30, APTS): (2.9) %
- proportion of patients with TEAEs related to EPS ([3]; BX30, APTS): 15%
- half-life ([4]; human, in vivo, po): 14.4 h
- Tmax ([4]; human, in vivo, oral administration, all dose levels): 1.5 to 2 h
- half-life ([4]; human, in vivo, oral): ~14 h
- dose proportionality of multiple-dose PK [4]: dose-proportional in the 20-40 mg/day range
- dose proportionality of multiple-dose PK ([4]; listed as bifeprunox): dose-proportional in the 2040 mg range
- age-, gender-, body weight- or race-related effects on PK ([4]; pooled analysis): No clinically significant age-, gender-, body weight- or race-related effects
- mean apparent clearance ([4]; steady-state, oral): 62.2 L/h
- mean apparent volume of distribution ([4]; steady-state, oral): 1300 L
- tolerability of combined administration [5]: well tolerated
- ≧7% weight decrease, (%) [6, 8]: 8.7%
- ≧7% weight increase, (%) [6, 8]: 3.3%
- ≧7% weight decrease, (%) [6, 9]: 23.1%
- ≧7% weight decrease, (%) [6, 10]: 4.7%
- ≧7% weight increase, (%) [6, 10]: 2.4%
- ≧7% weight decrease, (%) [6, 11]: 12.8%
- ≧7% weight decrease, (%) [6, 12]: 8.8%
- ≧7% weight increase, (%) [6, 12]: 2.5%
- Weight, Mean (SD) change from baseline [6, 8]: −0.9 (2.9) kg
- Weight, Mean (SD) change from baseline [6, 9]: −0.8 (2.6) kg
- Weight, Mean (SD) change from baseline [6, 10]: −0.9 (2.7) kg
- Weight, Mean (SD) change from baseline [6, 11]: −3.0 (5.6) kg
- Weight, Mean (SD) change from baseline [6, 12]: −1.1 (3.3) kg
- mean weight change ([6]; final evaluation (LOCF)): -1.1 kg
- mean change in weight ([6]; patients with nausea or vomiting): -1.4 kg
- mean change in weight ([6]; patients without nausea or vomiting): -1.0 kg
- hyperglycemia or diabetes-related adverse events ([7]; 26-week placebo-controlled trial): no patients reported
- incidence of hyperglycemia and diabetes-related adverse events ([7]; six-week placebo-controlled trials): 0.5%
